According to PubChem BioAssay (NCI):
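Five concentrations, 48 hours, 96-well plates. GI50 is the concentration that inhibits growth by half. TGI marks complete inhibition of growth.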

What was measured:
Experiment in all cases: inhibition of tumour cell growth, NCI panel, 48 h
HOP-62 NSCLC = tested on: HOP-62 NSCLC
M14 melanoma = tested on: M14 melanoma
HCT-15 colon = tested on: HCT-15 colon
HOP-92 NSCLC = tested on: HOP-92 NSCLC
SR leukemia = tested on: SR leukemia
RPMI-8226 leukemia = tested on: RPMI-8226 leukemia
NCI-H522 lung = tested on: NCI-H522 lung
SF-268 CNS = tested on: SF-268 CNS
A498 renal = tested on: A498 renal
CCRF-CEM leukemia = tested on: CCRF-CEM leukemia

Row | SMILES | GI50 (HOP-62 NSCLC) [µM] | TGI (HOP-62 NSCLC) [µM] | GI50 (M14 melanoma) [µM] | TGI (M14 melanoma) [µM] | GI50 (HCT-15 colon) [µM] | TGI (HCT-15 colon) [µM] | GI50 (HOP-92 NSCLC) [µM] | TGI (HOP-92 NSCLC) [µM] | GI50 (SR leukemia) [µM] | TGI (SR leukemia) [µM] | GI50 (RPMI-8226 leukemia) [µM] | TGI (RPMI-8226 leukemia) [µM] | GI50 (NCI-H522 lung) [µM] | TGI (NCI-H522 lung) [µM] | GI50 (SF-268 CNS) [µM] | TGI (SF-268 CNS) [µM] | GI50 (A498 renal) [µM] | TGI (A498 renal) [µM] | GI50 (CCRF-CEM leukemia) [µM] | TGI (CCRF-CEM leukemia) [µM]
1 | COc1ccccc1C1C(C#N)=C(N)OC2=C1C(=O)CCC2 (stereo unspecified) | > 100 | > 100 | > 100 | > 100 | > 100 | > 100 | 15.8 | > 100 | 14.2 | > 100 | 5.77 | 44.2 | > 100 | > 100 | > 100 | > 100 | > 100 | > 100 | 59.2 | > 100
2 | CCCCc1ccc2[n+](c1)C(C(=O)OCC)=PC2 (stereo unspecified) | – | > 100 | – | > 100 | – | > 100 | – | > 100 | – | > 100 | – | > 100 | – | > 100 | – | > 100 | – | > 100 | – | > 100
3 | O=C1c2ccccc2-c2ccc(NC(=O)C3CCCCC3C(=O)O)cc21 (stereo unspecified) | – | > 100 | – | > 100 | – | > 100 | – | > 100 | – | > 100 | – | > 100 | – | > 100 | – | > 100 | – | > 100 | – | > 100
4 | COc1ccc(C(=O)Cc2cc(OC)ccc2OC)cc1 | – | > 100 | – | > 100 | – | > 100 | – | – | – | > 100 | – | > 100 | – | > 100 | – | > 100 | – | > 100 | – | > 100
5 | Cc1cc(NS(=O)(=O)c2ccc(Nc3c4ccccc4nc4c(C(=O)NCCN(C)C)ccc(Cl)c34)cc2)no1 | – | 17.3 | – | 17.6 | – | 19.5 | – | – | – | 10.8 | – | – | – | 3.86 | – | 15.3 | – | – | – | 10.8
6 | CC(C)=CCN(N=O)c1ncnc2nc[nH]c12 | – | > 100 | – | > 100 | – | – | – | > 100 | – | > 100 | – | > 100 | – | > 100 | – | > 100 | – | > 100 | – | > 100
7 | CCOC(=O)C1C(c2cc(OC)c(O)c(OC)c2)c2cc3c(cc2OC1(C)O)OCO3 (stereo unspecified) | – | > 100 | – | > 100 | – | > 100 | – | 57 | – | – | – | > 100 | – | – | – | – | – | – | – | > 100
8 | Cc1ccc2c(c1)c(=O)c1c(NCCN(C)C)ccc3nnn2c31 | – | 21.5 | – | 16.4 | – | 20.3 | – | 11.5 | – | 7.67 | – | 7.63 | – | 17.6 | – | 20.2 | – | 12 | – | 17.9
